Common to all, as to test: Glasshouse assay for herbicidal activity, pre-/post-emergence (percentage phytotoxicity)
What all share (format): in vivo

For assay [1], the system named is Alopecurus myosuroides (ALOMY). The following applies: Alopecurus myosuroides, Rate 250 g/ha, 100%=total damage, 0%=no damage. How it is done:
(§1) Seeds of a variety of monocotyledonous and dicotyledonous test plants are sown in standard soil in pots. The plants are cultivated for one day (for pre-emergence) or for about 12 days (for post-emergence) under controlled conditions in a glasshouse (warm climate species at 24/18° C., cool climate species at 20/16° C., both at day/night; 16 hours light; 65% humidity). The test plants are then grown on, in a glasshouse (greenhouse) under controlled conditions (warm climate species at 24/18° C., cool climate species at 20/16° C., both at day/night; 16 hours light; 65% humidity) and are watered twice daily. 15 days after application of the test herbicide (15DAA) (for post-emergence), and 20 days after application of the test herbicide (20DAA) (for pre-emergence), the test plants are evaluated visually, and an assessed percentage phytotoxicity score is given for each herbicidal application on each plant species (with 100%=total damage to plant; 0%=no damage to plant). The plant species tested are as follows: Alopecurus myosuroides (ALOMY), Avena fatua (AVEFA), Lolium perenne (LOLPE), Echinochloa crus-galli (ECHCG).

The test system of assay [2] is Avena fatua (AVEFA). Conditions: Avena fatua, Rate 250 g/ha, 100%=total damage, 0%=no damage. How it is done:
as §1

For assay [3], the system named is Echinochloa crus-galli (ECHCG). The following applies: Echinochloa crus-galli, Rate 250 g/ha, 100%=total damage, 0%=no damage. How it is done: as §1
Assay [4] deals with Lolium perenne (LOLPE). The following applies: Lolium perenne, Rate 250 g/ha, 100%=total damage, 0%=no damage. How it is done: as §1
[5] abbreviates: 360 h, post-emergence, visual assessment 15 DAA, read-out: Post-emergence herbicidal activity (percentage phytotoxicity), ALOMY POST.
Where [6] appears, read: 480 h, pre-emergence, visual assessment 20 DAA, read-out: Pre-emergence herbicidal activity (percentage phytotoxicity), ALOMY PRE.
The mark [7] stands for this setting: post-emergence, 360 h, post-emergence, visual assessment 15 DAA, read-out: Post-emergence herbicidal activity (percentage phytotoxicity), AVEFA POST.
The mark [8] stands for this setting: pre-emergence, 480 h, pre-emergence, visual assessment 20 DAA, read-out: Pre-emergence herbicidal activity (percentage phytotoxicity), AVEFA PRE.
Setting [9] is: post-emergence, 360 h, post-emergence, visual assessment 15 DAA, read-out: Post-emergence herbicidal activity (percentage phytotoxicity), ECHCG POST.
Where [10] appears, read: pre-emergence, 480 h, pre-emergence, visual assessment 20 DAA, read-out: Pre-emergence herbicidal activity (percentage phytotoxicity), ECHCG PRE.
[11] abbreviates: post-emergence, 360 h, post-emergence, visual assessment 15 DAA, read-out: Post-emergence herbicidal activity (percentage phytotoxicity), LOLPE POST.
The mark [12] stands for this setting: pre-emergence, 480 h, pre-emergence, visual assessment 20 DAA, read-out: Pre-emergence herbicidal activity (percentage phytotoxicity), LOLPE PRE.

Like-named read-outs stand apart in the source and are kept apart here.

For `Cc1cc(C)c(C2C(=O)CC(CCN(C)C(=O)Nc3ccccn3)C2=O)c(C)c1` (stereo not shown) [Compound A101, 1-[2-[2,4-dioxo-3-(2,4,6-trimethylphenyl)cyclopentyl]ethyl]-1-methyl-3-(2-pyridyl)urea], the pest or weed control at 250 g/ha in assay [1] (setting [5]) was determined as 70%; in assay [1] (setting [6]), 40%; in assay [2] (setting [7]) it was 70%; in assay [2] (setting [8]), 0%; in assay [3] (setting [9]), 70%; in assay [3] (setting [10]) it was 10%. Further, the pest or weed control at 250 g/ha in assay [4] (setting [11]) worked out at 40%; in assay [4] (setting [12]), 30%.

As to `Cc1cc(C)c(C2C(=O)CC(CCNc3ccc([N+](=O)[O-])cn3)C2=O)c(C)c1` (stereo not shown) [Compound A96], the pest or weed control at 250 g/ha was 90% in assay [1] (setting [5]); 80% in assay [1] (setting [6]); 100% in assay [2] (setting [7]); 90% in assay [2] (setting [8]); 100% in assay [3] (setting [9]); 100% in assay [3] (setting [10]). The pest or weed control at 250 g/ha in assay [4] (setting [11]) and in assay [4] (setting [12]) was 100% throughout.

Regarding `Cc1cc(C)c(C2C(=O)CC(CCNc3ccc(C#N)cn3)C2=O)c(C)c1` (stereo not shown) [Compound A107], the pest or weed control at 250 g/ha amounted to 100% in assay [1] (setting [5]); 90% in assay [1] (setting [6]); 100% in assay [2] (setting [7]); 90% in assay [2] (setting [8]); 100% in assay [3] (setting [9]); 100% in assay [3] (setting [10]). Also, the pest or weed control at 250 g/ha in assay [4] (setting [11]) and in assay [4] (setting [12]) was 100% each time.

In the case of `Cc1cc(C)c(C2C(=O)CC(CCNc3ncc(Cl)cn3)C2=O)c(C)c1` (stereo not shown) [Compound A125], the pest or weed control at 250 g/ha is 90% in assay [1] (setting [5]); 90% in assay [1] (setting [6]); 90% in assay [2] (setting [7]); 80% in assay [2] (setting [8]); 100% in assay [3] (setting [9]); 90% in assay [3] (setting [10]). Further, the pest or weed control at 250 g/ha in assay [4] (setting [11]) was 100%; in assay [4] (setting [12]) it was 90%.

With `C#Cc1cc(C)cc(C)c1C1C(=O)CC(CCNC(=O)C2=NOC(C)(C)C2)C1=O` (stereo not shown) [Compound A123, N-[2-[3-(2-ethynyl-4,6-dimethyl-phenyl)-2,4-dioxo-cyclopentyl]ethyl]-5,5-dimethyl-4H-isoxazole-3-carboxamide], the pest or weed control at 250 g/ha amounted to 100% in assay [1] (setting [5]); 70% in assay [1] (setting [6]); 100% in assay [2] (setting [7]); 50% in assay [2] (setting [8]); 100% in assay [3] (setting [9]); 20% in assay [3] (setting [10]). The pest or weed control at 250 g/ha was 80% in assay [4] (setting [11]) and 90% in assay [4] (setting [12]).

For the compound `CC#Cc1cc(C)c(C2C(=O)CC(CCNc3ccc(C(F)(F)F)cn3)C2=O)c(C)c1` (stereo not shown) [Compound A113], the pest or weed control at 250 g/ha in assay [1] (setting [5]) turned out to be 100%; in assay [1] (setting [6]) it was 90%; in assay [2] (setting [7]) it was 100%; in assay [2] (setting [8]), 70%; in assay [3] (setting [9]), 100%; in assay [3] (setting [10]), 90%. For the same compound, the results for the pest or weed control at 250 g/ha in assay [4] (setting [11]) and in assay [4] (setting [12]) were 100% and 90%, respectively.

Take `Cc1cc(C)c(C2C(=O)CC(CCNC(=O)Nc3ccncn3)C2=O)c(C)c1` (stereo not shown) [Compound A95]: the pest or weed control at 250 g/ha was determined as 70% in assay [1] (setting [5]); 80% in assay [1] (setting [6]); 70% in assay [2] (setting [7]); 20% in assay [2] (setting [8]); 70% in assay [3] (setting [9]); 70% in assay [3] (setting [10]). The values for the pest or weed control at 250 g/ha in assay [4] (setting [11]) and in assay [4] (setting [12]) were 60% and 70%, respectively.

Take `Cc1cc(-c2ncc(Cl)cn2)cc(C)c1C1C(=O)CC(CCNC(=O)C2=NOC(C)(C)C2)C1=O` (stereo not shown) [Compound A118]: the pest or weed control at 250 g/ha came to 100% in assay [1] (setting [5]); 100% in assay [1] (setting [6]); 100% in assay [2] (setting [7]); 90% in assay [2] (setting [8]); 100% in assay [3] (setting [9]); 90% in assay [3] (setting [10]). Also, the pest or weed control at 250 g/ha worked out at 100% in assay [4] (setting [11]) and 90% in assay [4] (setting [12]).

As to `CC#Cc1cc(C)c(C2C(=O)CC(CCNc3ccc(C#N)cn3)C2=O)c(C)c1` (stereo not shown) [Compound A112], the pest or weed control at 250 g/ha stood at 100% in assay [1] (setting [5]); 100% in assay [1] (setting [6]); 100% in assay [2] (setting [7]); 90% in assay [2] (setting [8]); 100% in assay [3] (setting [9]); 100% in assay [3] (setting [10]). The results for the pest or weed control at 250 g/ha in assay [4] (setting [11]) and in assay [4] (setting [12]) were 100% and 90%, respectively.

As for `Cc1cc(-c2ccc(F)cc2)cc(C)c1C1C(=O)CC(CCNC(=O)C2=NOC(C)(C)C2)C1=O` (stereo not shown) [Compound A109], the pest or weed control at 250 g/ha in assay [1] (setting [5]) worked out at 100%; in assay [1] (setting [6]), 90%; in assay [2] (setting [7]), 100%; in assay [2] (setting [8]), 90%; in assay [3] (setting [9]), 100%; in assay [3] (setting [10]) it was 90%. In addition, the values for the pest or weed control at 250 g/ha in assay [4] (setting [11]) and in assay [4] (setting [12]) were 100% and 90%, respectively.

`Cc1cc(C)c(C2C(=O)CC(CCNc3ncc(C(F)(F)F)cc3F)C2=O)c(C)c1` (stereo not shown) [Compound A97]: the pest or weed control at 250 g/ha is 90% in assay [1] (setting [5]); 80% in assay [1] (setting [6]); 90% in assay [2] (setting [7]); 90% in assay [2] (setting [8]); 100% in assay [3] (setting [9]); 90% in assay [3] (setting [10]). Moreover, the pest or weed control at 250 g/ha in assay [4] (setting [11]) came to 90%; in assay [4] (setting [12]), 100%.

Take `Cc1cc(-c2ncc(F)cn2)cc(C)c1C1C(=O)CC(CCNC(=O)C2=NOC(C)(C)C2)C1=O` (stereo not shown) [Compound A110]: the pest or weed control at 250 g/ha worked out at 100% in assay [1] (setting [5]); 100% in assay [1] (setting [6]); 100% in assay [2] (setting [7]); 90% in assay [2] (setting [8]); 100% in assay [3] (setting [9]); 90% in assay [3] (setting [10]). For the same compound, the pest or weed control at 250 g/ha in assay [4] (setting [11]) and in assay [4] (setting [12]) was 90% each time.

Take `Cc1cc(C)c(C2C(=O)C[C@H](CCNC(=O)C3=NOC(C)(C)C3)C2=O)c(C)c1` (stereo partly shown) [Compound A103]: the pest or weed control at 250 g/ha in assay [1] (setting [5]) came out at 80%; in assay [1] (setting [6]), 80%; in assay [2] (setting [7]), 80%; in assay [2] (setting [8]) it was 50%; in assay [3] (setting [9]), 70%; in assay [3] (setting [10]), 60%. The pest or weed control at 250 g/ha in assay [4] (setting [11]) came out at 70%; in assay [4] (setting [12]), 80%.

On to `CNC(=O)NCCC1CC(=O)C(c2c(C)cc(C)cc2C)C1=O` (stereo not shown) [Compound A94, 1-[2-[2,4-dioxo-3-(2,4,6-trimethylphenyl)cyclopentyl]ethyl]-3-methyl-urea], for which the pest or weed control at 250 g/ha in assay [1] (setting [5]) amounted to 60%; in assay [1] (setting [6]), 80%; in assay [2] (setting [7]), 90%; in assay [2] (setting [8]), 60%; in assay [3] (setting [9]), 90%; in assay [3] (setting [10]), 70%. In addition, the pest or weed control at 250 g/ha in assay [4] (setting [11]) was determined as 80%; in assay [4] (setting [12]), 100%.

Values taken from US10301295B2, “Herbicidal compounds” (Syngenta Participations AG, priority 2014, dated 2019).
